Tests used:
[1] = Body weight change of MOLM-13 tumor-bearing NOD-SCID mice, Compound A and azacitidine (Test Example 1); type: in vivo, mouse
Protocol: (§1) Human acute myeloid leukemia cell line MOLM-13 cells were suspended to 5×10^7 cells/mL using phosphate-buffered saline. 0.1 mL of the prepared cell suspension was subcutaneously transplanted to each NOD-SCID mouse (male, 6 weeks old). On 6 days after the tumor inoculation, after confirmation that the average tumor volume exceeded 100 mm^3, the mice were grouped on the basis of their tumor volume values. 25 mg/kg or 50 mg/kg Compound A was orally administered by forced administration to the mice. 2.5 mg/kg or 4 mg/kg azacitidine was intravenously administered to the tails of the mice. For a combined use group, 25 mg/kg or 50 mg/kg Compound A and 2.5 mg/kg or 4 mg/kg azacitidine were administered sequentially. The administration of Compound A was performed once a day for 5 consecutive days (6 to 10 days after the tumor inoculation) from the date of grouping (6 days after the tumor inoculation), and after a 2-day drug holiday, performed once a day for 4 consecutive days (13 to 16 days after the tumor inoculation). The administration of azacitidine was performed once a day for 5 consecutive days (6 to 10 days after the tumor inoculation) from the date of grouping (6 days after the tumor inoculation). The major axis (mm) and minor axis (mm) of tumor were measured over time using an electronic digital caliper. Tumor growth inhibition % (TGI %) on the date of assessment (17 days after the tumor inoculation) calculated according to calculation formula (4) shown below was used in evaluation. Also, the body weights were measured over time using an automatic balance for small animals, and body weight change % was calculated according to calculation formula (5) shown below to study the influence of drug administration on the body weights. In addition, the results of the last body weight measurement were used in dose calculation.
(§2) Body weight change (%)=Average body weight change % of the individuals (5)
(§3) Body weight change % of each individual=[…]
(§4) BWn: Body weight on day n
(§5) BWs: Body weight on the start day of administration

[2] = tested on: human acute myeloid leukemia cell line MOLM-13; test: In vivo effect of combined use of Compound A and azacitidine on subcutaneous MOLM-13 tumors in NOD-SCID mice (Test Example 1); settings: for TGI (%): 17 days after tumor inoculation
Protocol: (§6) Human acute myeloid leukemia cell line MOLM-13 cells were suspended to 5×10^7 cells/mL using phosphate-buffered saline. 0.1 mL of the prepared cell suspension was subcutaneously transplanted to each NOD-SCID mouse (male, 6 weeks old). […] The major axis (mm) and minor axis (mm) of tumor were measured over time using an electronic digital caliper. […] In addition, the results of the last body weight measurement were used in dose calculation. […] A: Average tumor volume of the compound-administered group on the date of assessment (*) B: Average tumor volume of the untreated control group on the date of assessment (*) *: The tumor volume was calculated according to ½×[Major axis of tumor]×[Minor axis of tumor]×[Minor axis of tumor].

[3] = tested on: human acute myeloid leukemia cell line MOLM-13; test: In vivo effect of combined use of Compound A and decitabine on subcutaneous MOLM-13 tumors in NOD-SCID mice (Test Example 2); settings: for TGI (%): 17 days after tumor inoculation
Protocol: as §6, with “old). […] For a combined use group, 25 mg/kg or 50 mg/kg Compound A and 1 mg/kg or 50 mg/kg decitabine were administered sequentially.” for “old).”

[4] = Body weight change of MOLM-13 tumor-bearing NOD-SCID mice, Compound A and decitabine (Test Example 2); type: in vivo, mouse
Protocol: as §1, with “the mice. 1 mg/kg or” for “the mice. 2.5 mg/kg or”, “mg/kg or 50 mg/kg decitabine” for “mg/kg or 4 mg/kg azacitidine”, “50 mg/kg decitabine was intravenously” for “4 mg/kg azacitidine was intravenously”, “A and 1 mg/kg or” for “A and 2.5 mg/kg or”, “50 mg/kg decitabine were administered” for “4 mg/kg azacitidine were administered”, “administration of decitabine to the 50 mg/kg group was performed at the date of grouping (6 days after the tumor inoculation), and the administration thereof to the 1 mg/kg group was performed” for “administration of azacitidine was performed”
as §2, §3, §4, §5

[5] = Compound A 25 mg/kg oral, day 6 after tumor inoculation
[6] = Compound A 25 mg/kg oral, day 8 after tumor inoculation
[7] = Compound A 25 mg/kg oral, day 10 after tumor inoculation
[8] = Compound A 25 mg/kg oral, day 13 after tumor inoculation
[9] = Compound A 25 mg/kg oral, day 15 after tumor inoculation
[10] = Compound A 25 mg/kg oral, day 17 after tumor inoculation
[11] = Compound A 50 mg/kg oral, day 6 after tumor inoculation
[12] = Compound A 50 mg/kg oral, day 8 after tumor inoculation
[13] = Compound A 50 mg/kg oral, day 10 after tumor inoculation
[14] = Compound A 50 mg/kg oral, day 13 after tumor inoculation
[15] = Compound A 50 mg/kg oral, day 15 after tumor inoculation
[16] = Compound A 50 mg/kg oral, day 17 after tumor inoculation
[17] = azacitidine 4 mg/kg iv, day 6 after tumor inoculation
[18] = azacitidine 4 mg/kg iv, day 8 after tumor inoculation
[19] = azacitidine 4 mg/kg iv, day 10 after tumor inoculation
[20] = azacitidine 4 mg/kg iv, day 13 after tumor inoculation
[21] = azacitidine 4 mg/kg iv, day 15 after tumor inoculation
[22] = azacitidine 4 mg/kg iv, day 17 after tumor inoculation
[23] = decitabine 1 mg/kg iv, day 6 after tumor inoculation
[24] = decitabine 1 mg/kg iv, day 8 after tumor inoculation
[25] = decitabine 1 mg/kg iv, day 10 after tumor inoculation
[26] = decitabine 1 mg/kg iv, day 13 after tumor inoculation
[27] = decitabine 1 mg/kg iv, day 15 after tumor inoculation
[28] = decitabine 1 mg/kg iv, day 17 after tumor inoculation
[29] = decitabine 50 mg/kg iv, day 6 after tumor inoculation
[30] = decitabine 50 mg/kg iv, day 8 after tumor inoculation
[31] = decitabine 50 mg/kg iv, day 10 after tumor inoculation
[32] = decitabine 50 mg/kg iv, day 13 after tumor inoculation
[33] = decitabine 50 mg/kg iv, day 15 after tumor inoculation
[34] = decitabine 50 mg/kg iv, day 17 after tumor inoculation

## CC1(C)CCC2(CC1)N[C@@H](C(=O)N[C@@H]1CC[C@@H](C(N)=O)OC1)[C@H](c1ccnc(Cl)c1F)[C@]21C(=O)Nc2cc(Cl)ccc21.Cc1ccc(S(=O)(=O)O)cc1 [Compound A, (3′R,4′S,5′R)—N-[(3R,6S)-6-carbamoyltetrahydro-2H-pyran-3-yl]-6″-chloro-4′-(2-chloro-3-fluoropyridin-4-yl)-4,4-dimethyl-2″-oxo-1″,2″-dihydrodispiro[cyclohexane-1,2′-pyrrolidine-3′,3″-indole]-5′-carboxamide p-toluenesulfonate]
[1]; [5]
  Body weight change (%), average: 0.0%
[1]; [6]
  Body weight change (%), average: 2.5%
[1]; [7]
  Body weight change (%), average: 3.7%
[1]; [8]
  Body weight change (%), average: 9.0%
[1]; [9]
  Body weight change (%), average: 10.8%
[1]; [10]
  Body weight change (%), average: 13.8%
[1]; [11]
  Body weight change (%), average: 0.0%
[1]; [12]
  Body weight change (%), average: 1.7%
[1]; [13]
  Body weight change (%), average: 4.4%
[1]; [14]
  Body weight change (%), average: 8.7%
[1]; [15]
  Body weight change (%), average: 8.9%
[1]; [16]
  Body weight change (%), average: 10.7%
[2]; Compound A 25 mg/kg oral
  TGI (%): 34%
[2]; [5]
  Estimated tumor volume, average: 118 mm^3
[2]; [6]
  Estimated tumor volume, average: 269 mm^3
[2]; [7]
  Estimated tumor volume, average: 418 mm^3
[2]; [8]
  Estimated tumor volume, average: 834 mm^3
[2]; [9]
  Estimated tumor volume, average: 1346 mm^3
[2]; [10]
  Estimated tumor volume, average: 1697 mm^3
[2]; Compound A 50 mg/kg oral
  TGI (%): 72%
[2]; [11]
  Estimated tumor volume, average: 116 mm^3
[2]; [12]
  Estimated tumor volume, average: 180 mm^3
[2]; [13]
  Estimated tumor volume, average: 197 mm^3
[2]; [14]
  Estimated tumor volume, average: 364 mm^3
[2]; [15]
  Estimated tumor volume, average: 545 mm^3
[2]; [16]
  Estimated tumor volume, average: 721 mm^3
[3]; Compound A 25 mg/kg oral
  TGI (%): 22%
[3]; [5]
  Estimated tumor volume, average: 147 mm^3
[3]; [6]
  Estimated tumor volume, average: 257 mm^3
[3]; [7]
  Estimated tumor volume, average: 388 mm^3
[3]; [8]
  Estimated tumor volume, average: 876 mm^3
[3]; [9]
  Estimated tumor volume, average: 1213 mm^3
[3]; [10]
  Estimated tumor volume, average: 1825 mm^3
[3]; Compound A 50 mg/kg oral
  TGI (%): 76%
[3]; [11]
  Estimated tumor volume, average: 143 mm^3
[3]; [12]
  Estimated tumor volume, average: 227 mm^3
[3]; [13]
  Estimated tumor volume, average: 170 mm^3
[3]; [14]
  Estimated tumor volume, average: 310 mm^3
[3]; [15]
  Estimated tumor volume, average: 407 mm^3
[3]; [16]
  Estimated tumor volume, average: 554 mm^3
[4]; [5]
  Body weight change (%), average: 0.0%
[4]; [6]
  Body weight change (%), average: 2.3%
[4]; [7]
  Body weight change (%), average: 2.0%
[4]; [8]
  Body weight change (%), average: 8.0%
[4]; [9]
  Body weight change (%), average: 8.5%
[4]; [10]
  Body weight change (%), average: 10.3%
[4]; [11]
  Body weight change (%), average: 0.0%
[4]; [12]
  Body weight change (%), average: 1.7%
[4]; [13]
  Body weight change (%), average: 2.4%
[4]; [14]
  Body weight change (%), average: 7.4%
[4]; [15]
  Body weight change (%), average: 6.2%
[4]; [16]
  Body weight change (%), average: 7.2%

## Nc1ncn([C@@H]2O[C@H](CO)[C@@H](O)[C@H]2O)c(=O)n1 [Azacitidine, 4-amino-1-β-D-ribofuranosyl-1,3,5-triazin-2(1H)-one, reference compound]
[1]; [17]
  Body weight change (%), average: 0.0%
[1]; [18]
  Body weight change (%), average: −0.2%
[1]; [19]
  Body weight change (%), average: −0.4%
[1]; [20]
  Body weight change (%), average: 5.4%
[1]; [21]
  Body weight change (%), average: 8.8%
[1]; [22]
  Body weight change (%), average: 12.1%
[2]; azacitidine 4 mg/kg iv
  TGI (%): 28%
[2]; [17]
  Estimated tumor volume, average: 115 mm^3
[2]; [18]
  Estimated tumor volume, average: 226 mm^3
[2]; [19]
  Estimated tumor volume, average: 334 mm^3
[2]; [20]
  Estimated tumor volume, average: 637 mm^3
[2]; [21]
  Estimated tumor volume, average: 1359 mm^3
[2]; [22]
  Estimated tumor volume, average: 1855 mm^3

## Nc1ncn([C@H]2C[C@H](O)[C@@H](CO)O2)c(=O)n1 [Decitabine, 4-amino-1-(2-deoxy-β-D-erythro-pentofuranosyl)-1,3,5-triazin-2(1H)-one, reference compound]
[3]; decitabine 1 mg/kg iv
  TGI (%): 38%
[3]; [23]
  Estimated tumor volume, average: 144 mm^3
[3]; [24]
  Estimated tumor volume, average: 228 mm^3
[3]; [25]
  Estimated tumor volume, average: 327 mm^3
[3]; [26]
  Estimated tumor volume, average: 585 mm^3
[3]; [27]
  Estimated tumor volume, average: 901 mm^3
[3]; [28]
  Estimated tumor volume, average: 1441 mm^3
[3]; decitabine 50 mg/kg iv
  TGI (%): 14%
[3]; [29]
  Estimated tumor volume, average: 145 mm^3
[3]; [30]
  Estimated tumor volume, average: 206 mm^3
[3]; [31]
  Estimated tumor volume, average: 365 mm^3
[3]; [32]
  Estimated tumor volume, average: 732 mm^3
[3]; [33]
  Estimated tumor volume, average: 1175 mm^3
[3]; [34]
  Estimated tumor volume, average: 1997 mm^3
[4]; [23]
  Body weight change (%), average: 0.0%
[4]; [24]
  Body weight change (%), average: 2.6%
[4]; [25]
  Body weight change (%), average: 2.5%
[4]; [26]
  Body weight change (%), average: 7.8%
[4]; [27]
  Body weight change (%), average: 11.5%
[4]; [28]
  Body weight change (%), average: 14.3%
[4]; [29]
  Body weight change (%), average: 0.0%
[4]; [30]
  Body weight change (%), average: 3.7%
[4]; [31]
  Body weight change (%), average: 6.0%
[4]; [32]
  Body weight change (%), average: 9.6%
[4]; [33]
  Body weight change (%), average: 10.3%
[4]; [34]
  Body weight change (%), average: 14.6%

Source: US20190240210A1, “Treatment Method by Combined Use of MDM2 Inhibitor and DNA Methyltransferase Inhibitor” (DAIICHI SANKYO COMPANY, LIMITED, priority 2016, published 2019)
